Test results: PMC11089204 (Frontiers in Pharmacology, 2024)

Key:
[1] = tested on: human intestinal microsomes (HIM); experiment: Glucuronidation with human intestinal microsomes; assay type: in vitro ADME; conditions: HIM
Method: Corning UltraPool human liver microsomes (HLM) 150 (20 mg/mL), human intestinal microsomes (HIM) pool (10 mg/mL) as well as recombinant human CYP enzymes (with P450 oxidoreductase, OR) including CYP1A2+OR (0.5 nmol), CYP2B6+OR (0.5 nmol), CYP2C8+OR (1.0 nmol), CYP2C9*1+OR (1 nmol), CYP2C19+OR (0.5 nmol), CYP2D6*1+OR (0.5 nmol), CYP2E1+OR + cytochrome b5 (1 nmol), CYP3A4+OR + cytochrome b5 (0.5 nmol), MAO-A (5 mg/mL), MAO-B (5 mg/mL), and UGT1A10 (5 mg/mL) were purchased from Corning Life Sciences B.V (Amsterdam, Netherlands). All microsomes and recombinant enzyme solutions were aliquoted and stored at −80 °C until further use. Co-factors including NADPH regenerating system solution A (25 mM NADP+, 66 mM glucose-6-phosphate, and 66 mM MgCl2 in water), NADPH regenerating system solution B (40 U/mL glucose-6-phosphate dehydrogenase in 5 mM sodium citrate), UGT reaction mix solution A (25 mM uridine 5′-diphospho-glucuronic acid in water), and UGT reaction mix solution B (250 mM Tris-HCl, 40 mM MgCl2, and 0.125 mg/mL alamethicin in water) were also obtained from Corning Life Sciences B.V.
The assay described in section 2.5.1 was adjusted to suit the glucuronidation system. […] HLM were diluted as described in section 2.5.1, while HIM or UGT1A10 enzymes were diluted 1:40 (end concentration […] and 0.125 mg/mL, respectively) in the reaction mix. Sampling time points were adjusted to 0, 15, 30, 60, 90, 120, 180, and 240 min.

[2] = target: T1, recombinant human UGT1A10 (Homo sapiens, UniProt Q9HAW8); experiment: Glucuronidation with recombinant UGT1A10; assay type: in vitro ADME
T1 construct: purchased Corning Life Sciences B.V
T1 sequence (Q9HAW8 26-530): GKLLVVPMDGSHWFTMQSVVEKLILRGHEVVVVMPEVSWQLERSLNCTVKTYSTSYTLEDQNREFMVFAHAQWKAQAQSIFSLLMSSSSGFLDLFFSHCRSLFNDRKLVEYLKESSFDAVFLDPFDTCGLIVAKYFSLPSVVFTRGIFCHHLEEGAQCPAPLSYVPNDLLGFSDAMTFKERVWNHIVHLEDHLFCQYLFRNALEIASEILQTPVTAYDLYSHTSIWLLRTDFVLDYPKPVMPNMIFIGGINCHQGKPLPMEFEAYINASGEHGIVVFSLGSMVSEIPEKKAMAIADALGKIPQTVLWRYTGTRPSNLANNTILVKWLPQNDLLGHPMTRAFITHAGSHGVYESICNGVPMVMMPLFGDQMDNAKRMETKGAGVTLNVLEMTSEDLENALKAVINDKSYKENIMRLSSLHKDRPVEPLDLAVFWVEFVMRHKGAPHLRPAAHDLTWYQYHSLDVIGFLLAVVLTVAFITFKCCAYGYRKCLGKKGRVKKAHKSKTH
Method: (§1) Corning UltraPool human liver microsomes (HLM) 150 (20 mg/mL), human intestinal microsomes (HIM) pool (10 mg/mL) as well as recombinant human CYP enzymes (with P450 oxidoreductase, OR) including CYP1A2+OR (0.5 nmol), CYP2B6+OR (0.5 nmol), CYP2C8+OR (1.0 nmol), CYP2C9*1+OR (1 nmol), CYP2C19+OR (0.5 nmol), CYP2D6*1+OR (0.5 nmol), CYP2E1+OR + cytochrome b5 (1 nmol), CYP3A4+OR + cytochrome b5 (0.5 nmol), MAO-A (5 mg/mL), MAO-B (5 mg/mL), and UGT1A10 (5 mg/mL) were purchased from Corning Life Sciences B.V (Amsterdam, Netherlands). All microsomes and recombinant enzyme solutions were aliquoted and stored at −80 °C until further use.
The assay described in section 2.5.1 was adjusted to suit the glucuronidation system.

recombinant CYP2D6 = target: T2, recombinant CYP2D6 (Homo sapiens, UniProt P10635); experiment: Incubation with recombinant CYP2D6 enzymes; assay type: in vitro ADME; conditions: rec. CYP2D6 with CYP2D6 inhibitor quinidine
T2 construct: purchased Corning Life Sciences B.V
Method: as §1
The total volume of the reaction mixture was 500 μL. […] Samples were either directly analyzed by liquid chromatography tandem mass spectrometry (LC-MS/MS) or briefly stored at −20°C until analysis.

[3] = Pharmacokinetics and metabolites in mouse plasma after oral psilocybin; assay type: in vivo, C57BL/6J mice; conditions: 3 mg/kg psilocybin p.o.
Method: C57BL/6J adult male mice (Janvier, Le Genest-Saint-Isle, France) were maintained in littermate pairs in standard cages (containing sawdust, a sleeping chamber, tissue paper, and a wood stick) with water and pellet food available ad libitium. The colony room was on a reversed light-dark cycle (dark phase 07:00 to 19:00) with temperature at 22°C and humidity at 50–60%. A total of 10 mice were dosed orally with either 3 mg/kg bodyweight psilocybin (n = 5) or saline solution (n = 5). Dosing and blood sampling were conducted between 09:00 and 13:00. The mouse was placed in a plastic restrainer with the tail protruding through a hole in the end of the tube. The tail was immersed in warm water for 1 min for vasodilation and then a small incision was made on the lateral tail surface near the distal tip. 50 μL of blood was massaged gently into an EDTA-coated capillary blood tube (Mircovette, Sarstedt, Nümbrecht, Germany). The first (baseline) blood sample was collected directly before compound administration via oral gavage and the mouse was then returned to the home cage. Further blood samples were collected at 15, 30, 60, and 120 min post-treatment. Each sample was drawn from the same incision site, with mice maintained in the home cage in the intervening periods. The blood samples were stored on ice and centrifuged for 10 min at 780 × g and 4°C. Subsequently, the plasma was transferred into cryotubes (Protein LoBind, Eppendorf) and stored at −80 °C until analysis. All procedures were conducted under a permit for animal experimentation (ZH038/2022) issued by the Veterinary Office Zurich in accordance with the Animal Protection Act (1978) of Switzerland. The use of psilocybin was authorized by the Federal Office of Public Health (FOPH).
Pharmacokinetic parameters were calculated using Phoenix WinNonlin software (version 8.1.0, Certara, Princeton, USA). The elimination half-life (t1/2, min) was assessed as t1/2 = ln(2)/λ, while the elimination constant was calculated by linear regression in the terminal elimination phase. The maximal plasma concentration (Cmax, ng/mL) and the time to reach this concentration (tmax, h) were direct read-outs of the graphical plots.

mouse 5-HT2A receptor = target: mouse 5-HT2A receptor; design: method as in Sherwood et al., 2020; conditions: Gq-dependent calcium flux, nearly full agonist; ref Sherwood et al., 2020; cited from earlier work
mice = tested on: mice; design: method as in Sherwood et al., 2020; conditions: ref Sherwood et al., 2020; cited from earlier work
[4] = Metabolites in human plasma after oral psilocybin (reanalysed study samples); conditions: 30 mg psilocybin p.o., n = 5

T2 sequence (P10635 whole entry): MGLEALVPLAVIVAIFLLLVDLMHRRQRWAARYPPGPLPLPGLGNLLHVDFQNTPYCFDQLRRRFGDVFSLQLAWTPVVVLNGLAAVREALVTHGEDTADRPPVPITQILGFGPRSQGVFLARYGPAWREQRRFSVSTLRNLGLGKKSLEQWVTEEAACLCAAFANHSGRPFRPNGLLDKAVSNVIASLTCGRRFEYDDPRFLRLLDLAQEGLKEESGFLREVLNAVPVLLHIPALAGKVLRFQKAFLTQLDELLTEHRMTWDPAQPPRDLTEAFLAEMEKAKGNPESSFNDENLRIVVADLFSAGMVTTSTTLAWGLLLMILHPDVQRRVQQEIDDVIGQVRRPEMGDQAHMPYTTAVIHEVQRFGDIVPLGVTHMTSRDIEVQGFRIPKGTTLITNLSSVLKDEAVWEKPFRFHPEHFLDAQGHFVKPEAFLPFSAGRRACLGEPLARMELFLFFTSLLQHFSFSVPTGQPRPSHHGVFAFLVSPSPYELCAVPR

O=C1Nc2c(O)cc(Cl)cc2[C@@](C#CC2CC2)(C(F)(F)F)O1 [OH-efavirenz, 8-hydroxy-efavirenz]
OH-efavirenz glucuronidated ([1]; over 240 min, control condition): 99%
OH-efavirenz peak area ([1]; t = 0): 45,300 ± 5,766 counts
OH-efavirenz peak area ([1]; t = 240 min): 470 ± 394 counts
OH-efavirenz glucuronidated ([2]; rec. UGT1A10, over 240 min, control condition): 98%
OH-efavirenz peak area ([2]; rec. UGT1A10, t = 0): 41,700 ± 10,936 counts
OH-efavirenz peak area ([2]; rec. UGT1A10, t = 240 min): 1,007 ± 155 counts

CNCCc1c[nH]c2cccc(O)c12 [norpsilocin, N-methyl-4-hydroxytryptamine]
metabolite formation on co-incubation with quinidine (recombinant CYP2D6): reduced and delayed formation
Tmax ([3]; male, C57BL/6J, po, mouse plasma, n = 5, read-out: tmax (mean ± SD)): ~15 min
EC50 (mouse 5-HT2A receptor): < 10 nM
psychoactive properties in head-twitch response (mice): did not show any psychoactive properties
detection in human plasma [4]: neither norpsilocin nor 4-HTP was detected

CN(C)CCc1c[nH]c2cccc(OP(=O)(O)O)c12 [psilocybin]
detection in mouse plasma [3]: did not detect
detection in human plasma [4]: did not detect
